Measured values reported in patent publication US20230127258A1, “COMPOSITION COMPRISING THROMBIN DERIVED PEPTIDES AND USE THEREOF” (In2Cure AB, priority 2019, published 2023).

Columns and labels:
[1] = tested on: P. aeruginosa-induced sepsis and LPS-mediated shock; details: mouse models of endotoxic shock; cited from earlier work
[2] = tested on: LPS / TLR4- and TLR2-induced NF-kB activation; details: cited from earlier work
[3] = tested on: S. aureus, P. aeruginosa and E. coli; test: MIC and MBC of TCP-25 with EDTA, text summary for all three bacterial strains (FIG. 20B-C); type: cell-based
Experimental: The minimal inhibitory concentration (MIC) was conducted according to standard protocol (Wiegand et al., 2008). A 1% bacterial solution was diluted 1:1000 times in 2×BBL™ Mueller Hinton (MH) II, cation adjusted broth (Becton, Dickinson and Company, Sparks, USA). […] Next, 50 μl of the bacterial solution was added. MH broth without bacteria was used as a sterile control, whereas supplemented only with bacteria as growth control. […] MIC was assessed as the lowest concentration of treatment that prevents visual bacterial growth in the wells. The MIC plates were then used to determine the minimal bactericidal concentration (MBC) for the various treatments. This was conducted by resuspending the solution in each well with a pipette and then plating 10 μl droplets on a THA plates which were then incubated in 37° C. overnight. MBC was established at concentration at which no bacterial colonies were observed.

Row | Compound | mortality [1] | anti-endotoxic functions [2] | antibacterial effect of EDTA alone [3]
1 | HVFRLKKWIQKVIDQFGE (TCP-25 fragment; PEPTIDE (1)..(18) TCP-25 fragment) [HVF18] | reduce mortality | anti-endotoxic functions in vitro and in vivo | –
2 | O=C(O)CN(CCN(CC(=O)O)CC(=O)O)CC(=O)O [EDTA, ethylenediaminetetraacetic acid] | – | – | some bacteriostatic effect
